The text below walks through data of patent US20130029362A1, “MARKERS AND ASSAYS FOR DETECTION OF NEUROTOXICITY” (priority 2010, published 2013).

Each structure is given as a SMILES string.

Data set [1] has as its system Mouse, rat cortical or hippocampal primary neurons. Kind of data set: In vitro drug candidate screening for neurotoxicity, ELISA of cell lysates. The data set is classed as cell-based. The following applies: primary neurons 21 DIV, glutamate 30 min, other agents 24 hours. The method, then: Mouse, rat cortical or hippocampal primary neurons are cultured for 21 DIV, and the dose dependent responses of drugs are investigated. Cultured cells are exposed to various concentrations of: Glutamate (0.01 to 1000 μM) in 10 μM glycine both in HBSS; B) 0.01 to 100 μM Kainate in culture media; C) H2O2 (0.001 to 1000 μM) in culture media; C) Zinc (0.01 to 1000 μM) in culture media; D) U0126 (0.001 to 100 μM) in culture media; and E) and equal volume of culture media as a control. Glutamate treatment is performed for 30 minutes after which the cells are washed and the HBSS is replaced with culture media and analyzed. The remaining candidates are treated for 24 hours and analyzed. The levels of intracellular UCH-L1 and SBDP 145 are analyzed following cell lysis and screening of the lysates by ELISA using anti-UCH-L1 and SBDP 145 specific antibodies. The levels of UCH-L1 are increased following exposure particularly to Glutamate and H2O2.
On the technique in general: ELISA stands for enzyme-linked immunosorbent assay.

Data set [2] deals with Male Sprague-Dawley rats. Kind of data set: Kainic acid neurotoxicity rat model, immunohistochemistry of brain sections. Type of data set: in vivo. The protocol:
(§1) Male Sprague-Dawley rats (Harlan: Indianapolis, Ind.) with weight from 180 to 200 g are used. The rats are allowed free access to a normal laboratory diet and chlorinated potable water. All rats are acclimated for at least one week to the housing facilities and diet before being used in the study. The controls in the animal room are set to maintain a temperature of 20° C. to 24° C. and 30% to 70% relative humidity. Rats are maintained on a twelve-hour light/dark cycle.
(§2) Animals received single subcutaneous injections of Kaininc acid (Sigma, Chemical, St. Louis, Mo., USA) at dose 9 mg/kg and sacrificed at 24 h after injection. Separate control/treatment groups of animals are used. Brain tissues and CSF sample are collected at 6, 24, 48 and 72 h time points after injection.
(§3) At the appropriate time points, animals are anesthetized with 4% isoflurane in oxygen as a carrier gas for 4 minutes, followed by maintenance anesthesia of 2-3% isoflurane in the same carrier gas. The rats are placed in a stereotaxic instrument and about 100 μl of CSF from the cisterna magna of each animal is collected transcutaneously through 25 gauge needle attached to polyethylene tubing. CSF samples are frozen on dry ice immediately after collection. After CSF collection animals are removed from the stereotaxic instrument and anesthesia nose cone and the animal, still under anesthesia, is immediately sacrificed by decapitation. Cortex, hippocampus, cerebellum and striatum will be rapidly dissected out, rinsed in cold PBS and snap frozen in liquid nitrogen. To obtain brain tissue for IHC animals are euthanized with lethal dose of pentobarbital, transcardically perfused with 4% paraformaldehyde and whole brains are removed, processed and embedded in paraffin.
IHC is performed on paraffin-embedded 6 μm brain sections. Slides are deparaffinized, incubated for 10 min at 95° C. in Trilogy solution (Cell Marque, Hot Springs, Ak.) for antigen retrieval, blocked for endogenous peroxides and incubated with 1 Abs (GFAP, SBDP145, SBDP150, SBDP120 and Casp 3) overnight at 4° C. followed by treatments with secondary Abs (LSAB+, # K0679, Dako). The staining is visualized with 3,3′-diaminobenzidine (DAB) (Dako, Carpinteria, Calif.) for brown color development. Sections are counterstained with Hematoxylin (Dako, Carpinteria, Calif.). Negative controls are performed by treatment only with species-matched secondary antibodies.

Data set [3] relates to Male Sprague-Dawley rats. Type of data set: in vivo, rat. As to conditions: 9 mg/kg s.c., compared with control group. The protocol: as §1, §2, §3
Serum and CSF sample concentrations of UCH-L1 are measured using a UCH-L1 sandwich enzyme-linked immunosorbent assay (ELISA) version lb modified from a protocol previously reported (Papa L. et al., 2010; Liu M. et al., 2009). Both mouse monoclonal antibody (capture antibody) and rabbit polyclonal antibody (detection antibody) are made in-house against recombinant human UCH-L1 full length protein and partial protein respectively). Both are affinity purified using target-protein-based affinity column. Their specificity to only target protein (UCH-L1) is confirmed by immunoblotting. Reaction wells are coated with capture antibody (5 μg/mL purified mouse monoclonal anti-human UCHL1) in 0.05 M sodium bicarbonate, pH 9.6 and incubated overnight at 4° C. […] Finally, the wells are developed with substrate solution: Ultra-TMB ELISA 100 μL/well (Pierce #34028) with incubation for 10 min, plate read at 450 nm with a 96-well spectrophotometer (Molecular Device Spectramax 190).
Serum and CSF sample concentrations of GFAP are measured using a GFAP sandwich enzyme-linked immunosorbent assay (ELISA) version 2a. […]

Another data set has as its system rats. Put plainly: Kainic acid neurotoxicity rat model, biomarkers in blood plasma. The data set is classed as in vivo. As to conditions: process of Example 5 with blood plasma in lieu of CSF; as a function of time. The text has this: The process of Example 5 is repeated with blood plasma as the subject sample source the rats in lieu of CSF.
The test system of data set [4] is Male Sprague-Dawley rats. Kind of data set: Kainic acid neurotoxicity rat model, Western blot of brain tissue for αII-spectrin and SBDPs. As to conditions: 9 mg/kg s.c.; hippocampus and to a lesser extent cortex. Type of data set: in vivo. The method, then: as §1, §2, §3
After SDS-gel electrophoresis in Tris-glycine buffer system and electrotransfer, blotting membranes are blocked for 1 hour at ambient temperature in 5% non-fat milk in Tris-buffered saline (TBS) and then in TBS containing 0.05% […] (TBST), then incubated in primary monoclonal anti-αII-spectrin antibodies (Biomol, Plymouth Meeting, Pa., USA) diluted ˜1:3000 (3.5 ul/10 ml) in PBS as recommended by the manufacturer at 4° C. overnight. […] Molecular weight of intact αll-spectrin protein and αll-spectrin breakdown products (SBDPs) are assessed by running alongside rainbow colored molecular weight standards (Amersham, Cat # RPN800V). Semi-quantitative evaluation of levels of αll-spectrin and of its breakdown products SBDP150 and SBDP145 and SBDP120 is performed using computer-assisted high-resolution flatbed scanner Epson XL3500 and densitometric image analysis with Image J software (NIH). […]
Background: Immunoblotting shows a protein as a band on a membrane.

The subject of data set [5] is Female Sprague-Dawley rats. Kind of data set: Acute in vivo drug candidate screening for neurotoxicity, biofluid biomarkers by sandwich ELISA or Western blot. The following applies: rat, i.p., 30, 60, 90, 120 minutes following dosing, methamphetamine 40 mg/kg. The protocol: Anesthesia is performed with intraperitoneal injections of pentobarbital (50 mg/kg). The test substance can also be administered in a single dose by gavage using a stomach tube or a suitable intubation cannula. Animals are fasted prior to dosing. A total of four to eight animals of are used for each dose level investigated.
30, 60, 90, and 120 minutes following dosing, the rats are sacrificed by decapitation and blood is obtained by cardiac puncture. The levels of biofluid UCH-L1 and SBDP 150 and GFAP are analyzed by sandwich ELISA or Western blot by using UCH-L1 and SBDP 150 and GFAP specific antibodies.

[6] abbreviates: 9 mg/kg s.c., hippocampus and cortex, vs control group.

As to `N[C@@H](CCC(=O)O)C(=O)O` [Glutamate], the “levels of intracellular UCH-L1” value in data set [1] is listed as “increased”.
With `OO` [H2O2], in data set [1], the “levels of intracellular UCH-L1” value was “increased”.
Turning to `C=C(C)[C@H]1CN[C@H](C(=O)O)[C@H]1CC(=O)O` [KA, Kainic acid], in the data set with Male Sprague-Dawley rats [2] (setting [6]), the “level of GFAP (IHC)” value was “increased level”, the “level of SBDP120 (IHC)” value was “increased level”, the “level of SBDP145 (IHC)” value was “increased level” and the “level of SBDP150 (IHC)” value was “increased level”. The “level of αII-spectrin breakdown products (histology images)” value with Male Sprague-Dawley rats [2] (hippocampus of KA treated rats, FIG. 5) is “increased level”. Besides, the “level of activated Caspase-3 (histology images)” value in the data set with Male Sprague-Dawley rats [2] (hippocampus of KA treated rats, FIG. 7) was “increased level”. Further, in the data set with Male Sprague-Dawley rats [3], the “SBDP120 in CSF (ELISA)” value is listed as “buildup”, the “SBDP145 in CSF (ELISA)” value is given as “buildup”, the “SBDP150 in CSF (ELISA)” value was “buildup” and the “expression of GFAP in CSF (ELISA)” value was “increase”. Besides, the “expression of UCHL 1 in CSF (ELISA)” value in the data set with Male Sprague-Dawley rats [3] is “increase”. Also, the “Biomarker levels in blood plasma (UCHL 1, GFAP, NF-H)” value with rats is “elevated”. For the same compound, in the data set with Male Sprague-Dawley rats [4], the “SBDP120 breakdown fragment produced by caspase-3 (Western blot)” value was “appearance”, the “SBDP145 breakdown fragment produced by calpain (Western blot)” value is “appearance”, the “SBDP150 breakdown fragment produced by calpain (Western blot)” value is reported as “appearance” and the “intact αII-spectrin level (Western blot)” value is given as “decrease”.
For the compound `CN[C@@H](C)Cc1ccccc1` [methamphetamine], in data set [5], the “biofluid GFAP level relative to control animals” value is “increased”. Further, in data set [5] (cisplatin 10 mg/kg), the “biofluid SBDP 150 level relative to control animals” value is “increased” and the “biofluid UCH-L1 level relative to control animals” value was “increased”.
